Measured values: patent US10159640B2, “Prebiotic oral care compositions containing amino acids” (COLGATE-PALMOLIVE COMPANY, priority 2013, dated 2018)

Experiments:
Assay in all cases: Metabolic activity, Biolog phenotype microarray
Assay type in all cases: cell-based
Details in all cases: control without dipeptide = 1
Streptococcus mutans = tested on: Streptococcus mutans
Procedure, shortened: (§1)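 Each species, grown 48 h anaerobically on blood agar, was suspended in IF-0 fluid with tetrazolium Redox Dye D, succinate and ferric citrate, then dispensed onto dipeptide-preloaded plates. Incubated anaerobically at 37° C; OD 492 nm read at 24 and 48 h versus no-dipeptide controls; mean of three biological replicates.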

Actinomyces naeslundii = tested on: Actinomyces naeslundii
Procedure, shortened: as §1

Fusobacterium nucleatum = tested on: Fusobacterium nucleatum
Procedure, shortened: as §1

Streptococcus sobrinus = tested on: Streptococcus sobrinus
Procedure, shortened: as §1

Streptococcus sanguinis = tested on: Streptococcus sanguinis
Procedure, shortened: as §1

[1] = tested on: Aggregatibacter actinomycetemcomitans
Procedure, shortened: as §1

Tannerella forsythia = tested on: Tannerella forsythia
Procedure, shortened: as §1

Streptococcus gordonii = tested on: Streptococcus gordonii
Procedure, shortened: as §1

Streptococcus salivarius = tested on: Streptococcus salivarius
Procedure, shortened: as §1

Actinomyces viscosus = tested on: Actinomyces viscosus
Procedure, shortened: as §1

Capnocytophaga sputigena = tested on: Capnocytophaga sputigena
Procedure, shortened: as §1

Prevotella intermedia = tested on: Prevotella intermedia
Procedure, shortened: as §1

Streptococcus mitis = tested on: Streptococcus mitis
Procedure, shortened: as §1

Porphyromonas gingivalis = tested on: Porphyromonas gingivalis
Procedure, shortened: as §1

Veillonella parvula = tested on: Veillonella parvula
Procedure, shortened: as §1

Met-Pro
metabolic activity: OD 492 nm divided by OD of control (Streptococcus mutans; 24 hrs): 0.9563
metabolic activity: OD 492 nm divided by OD of control (Streptococcus mutans; 48 hrs): 0.9242
metabolic activity: OD 492 nm divided by OD of control (Actinomyces naeslundii; 24 hrs): 1.0381
metabolic activity: OD 492 nm divided by OD of control (Actinomyces naeslundii; 48 hrs): 1.0427
metabolic activity: OD 492 nm divided by OD of control (Fusobacterium nucleatum; 24 hrs): 0.8752
metabolic activity: OD 492 nm divided by OD of control (Fusobacterium nucleatum; 48 hrs): 0.8113
metabolic activity: OD 492 nm divided by OD of control (Streptococcus sobrinus; 24 hrs): 1.0338
metabolic activity: OD 492 nm divided by OD of control (Streptococcus sobrinus; 48 hrs): 1.0538
metabolic activity: OD 492 nm divided by OD of control (Streptococcus sanguinis; 24 hrs): 0.8599
metabolic activity: OD 492 nm divided by OD of control (Streptococcus sanguinis; 48 hrs): 0.8295
metabolic activity: OD 492 nm divided by OD of control ([1]; 24 hrs): 0.9162
metabolic activity: OD 492 nm divided by OD of control ([1]; 48 hrs): 0.8616
metabolic activity: OD 492 nm divided by OD of control (Tannerella forsythia; 24 hrs): 0.9040
metabolic activity: OD 492 nm divided by OD of control (Tannerella forsythia; 48 hrs): 0.9403
metabolic activity: OD 492 nm divided by OD of control (Streptococcus gordonii; 24 hrs): 1.0870
metabolic activity: OD 492 nm divided by OD of control (Streptococcus gordonii; 48 hrs): 1.0447
metabolic activity: OD 492 nm divided by OD of control (Streptococcus salivarius; 24 hrs): 0.9990
metabolic activity: OD 492 nm divided by OD of control (Streptococcus salivarius; 48 hrs): 0.9500
metabolic activity: OD 492 nm divided by OD of control (Actinomyces viscosus; 24 hrs): 1.5865
metabolic activity: OD 492 nm divided by OD of control (Actinomyces viscosus; 48 hrs): 2.0588
metabolic activity: OD 492 nm divided by OD of control (Capnocytophaga sputigena; 24 hrs): 2.5077
metabolic activity: OD 492 nm divided by OD of control (Capnocytophaga sputigena; 48 hrs): 1.8376
metabolic activity: OD 492 nm divided by OD of control (Prevotella intermedia; 24 hrs): 0.9704
metabolic activity: OD 492 nm divided by OD of control (Prevotella intermedia; 48 hrs): 0.9393
metabolic activity: OD 492 nm divided by OD of control (Streptococcus mitis; 24 hrs): 1.0020
metabolic activity: OD 492 nm divided by OD of control (Streptococcus mitis; 48 hrs): 0.9214
metabolic activity: OD 492 nm divided by OD of control (Porphyromonas gingivalis; 24 hrs): 1.0029
metabolic activity: OD 492 nm divided by OD of control (Porphyromonas gingivalis; 48 hrs): 1.0774
metabolic activity: OD 492 nm divided by OD of control (Veillonella parvula; 24 hrs): 0.7714
metabolic activity: OD 492 nm divided by OD of control (Veillonella parvula; 48 hrs): 0.6345

Phe-Glu
metabolic activity: OD 492 nm divided by OD of control (Streptococcus mutans; 24 hrs): 1.0352
metabolic activity: OD 492 nm divided by OD of control (Streptococcus mutans; 48 hrs): 0.9816
metabolic activity: OD 492 nm divided by OD of control (Actinomyces naeslundii; 24 hrs): 0.9642
metabolic activity: OD 492 nm divided by OD of control (Actinomyces naeslundii; 48 hrs): 0.9466
metabolic activity: OD 492 nm divided by OD of control (Fusobacterium nucleatum; 24 hrs): 0.9451
metabolic activity: OD 492 nm divided by OD of control (Fusobacterium nucleatum; 48 hrs): 0.9112
metabolic activity: OD 492 nm divided by OD of control (Streptococcus sobrinus; 24 hrs): 1.0354
metabolic activity: OD 492 nm divided by OD of control (Streptococcus sobrinus; 48 hrs): 1.0539
metabolic activity: OD 492 nm divided by OD of control (Streptococcus sanguinis; 24 hrs): 1.0204
metabolic activity: OD 492 nm divided by OD of control (Streptococcus sanguinis; 48 hrs): 1.0208
metabolic activity: OD 492 nm divided by OD of control ([1]; 24 hrs): 0.9204
metabolic activity: OD 492 nm divided by OD of control ([1]; 48 hrs): 0.9345
metabolic activity: OD 492 nm divided by OD of control (Tannerella forsythia; 24 hrs): 1.0452
metabolic activity: OD 492 nm divided by OD of control (Tannerella forsythia; 48 hrs): 1.0015
metabolic activity: OD 492 nm divided by OD of control (Streptococcus gordonii; 24 hrs): 0.8472
metabolic activity: OD 492 nm divided by OD of control (Streptococcus gordonii; 48 hrs): 0.9890
metabolic activity: OD 492 nm divided by OD of control (Streptococcus salivarius; 24 hrs): 1.0411
metabolic activity: OD 492 nm divided by OD of control (Streptococcus salivarius; 48 hrs): 0.9959
metabolic activity: OD 492 nm divided by OD of control (Actinomyces viscosus; 24 hrs): 1.3824
metabolic activity: OD 492 nm divided by OD of control (Actinomyces viscosus; 48 hrs): 2.1224
metabolic activity: OD 492 nm divided by OD of control (Capnocytophaga sputigena; 24 hrs): 2.1428
metabolic activity: OD 492 nm divided by OD of control (Capnocytophaga sputigena; 48 hrs): 1.7139
metabolic activity: OD 492 nm divided by OD of control (Prevotella intermedia; 24 hrs): 1.0519
metabolic activity: OD 492 nm divided by OD of control (Prevotella intermedia; 48 hrs): 0.9562
metabolic activity: OD 492 nm divided by OD of control (Streptococcus mitis; 24 hrs): 1.0644
metabolic activity: OD 492 nm divided by OD of control (Streptococcus mitis; 48 hrs): 1.1176
metabolic activity: OD 492 nm divided by OD of control (Porphyromonas gingivalis; 24 hrs): 0.9806
metabolic activity: OD 492 nm divided by OD of control (Porphyromonas gingivalis; 48 hrs): 0.9029
metabolic activity: OD 492 nm divided by OD of control (Veillonella parvula; 24 hrs): 0.8043
metabolic activity: OD 492 nm divided by OD of control (Veillonella parvula; 48 hrs): 0.7552
